Experimental findings from patent US20060046999A1, “Monocyclic aroylpyridinones as antiinflammatory agents” (priority 2002, published 2006) are described below.

Sequence of p38 map kinase (Q16539 whole entry): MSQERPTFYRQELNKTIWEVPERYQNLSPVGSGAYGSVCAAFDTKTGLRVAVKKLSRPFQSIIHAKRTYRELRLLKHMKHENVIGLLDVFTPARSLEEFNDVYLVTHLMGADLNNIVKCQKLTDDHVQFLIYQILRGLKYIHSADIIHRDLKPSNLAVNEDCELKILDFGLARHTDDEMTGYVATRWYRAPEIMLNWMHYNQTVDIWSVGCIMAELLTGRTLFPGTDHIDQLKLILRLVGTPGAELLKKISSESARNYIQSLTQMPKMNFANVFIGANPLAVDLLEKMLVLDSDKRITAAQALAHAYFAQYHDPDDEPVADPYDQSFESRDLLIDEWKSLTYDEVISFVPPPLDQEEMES

The target of the assay is p38 map kinase (Homo sapiens, UniProt Q16539). As to the kind of experiment: p38 map kinase SPA [33P] assay. It is filed as biochemical. Conditions: 10 μM ATP, 2.5 μM biotinylated MBP substrate, 90 min at 30° C. From the text:
The assay makes use of the serine/threonine protein kinase SPA [^33P]-assay kit from Amersham Pharmacia Biotech. The assay is a homogeneous technique using SPA technology for the quantification of serine threonine kinase activity.
It is based on the p38 map kinase catalysed transfer of the γ-phosphate group of the [γ-^33P]-ATP to the substrate, biotinylated myelin basic protein (MBP). The resulting [^33P]-labelled biotinylated product is trapped on a PVT SPA bead containing scintillant which has been surface coated with streptavidin.
The beads are allowed to settle to eliminate high background, and therefore only ^33P_labelled product attached to the SPA bead is detected.
The assay is carried out in the presence and absence of test compounds to determine their effect on p38 map kinase activity.
A Test Protocol is as Follows:
• 1. SPA assay kit (Amersham). Components: • Assay buffer (store frozen) • Stop solution (store frozen) • Streptavidin coated SPA beads—reconstitute with 5 ml of PBS (50 mg/ml) (store in fridge) • 2. p38 map kinase enzyme (500 μg/ml)—aliquoted in 1.5 ml • dilute 1:10 to 50 μg/ml • 1 plate: 110 μl (stock 500 μg/ml)+990 μl PBS. • 3. Assay reagent: • for 1 plate: 504 μl assay buffer [500 mM MOPS pH 7.2, 10 μM ATP, 50 mM MgCl2, 25 μM biotinylated myelin basic protein (MBP)] • 2513.4 μl water • 1.1 μl [^33P]-ATP (10 μCi/μl) (on activity date/adjust for activity date) • 4.534 μl X10-2M ATP in water • 4. Stop solution: • for 1 plate: 265.92 μl streptavidin coated beads (50 mg/ml) • 1651.68 μl stop buffer (500 μM ATP, 50 mM EDTA, 1% Triton X-100) • 7084.32 μl PBS. • 1. Add 10 μl compound dilutions (5× final conc.) to test wells • 2. Add 10 μl 12.5% DMSO to control/blank wells • 3. Add 10 μl enzyme (50 μg/ml)—final conc. 500 ng/well • 4. Add 10 μl PBS to blank wells • 5. Add 30 μl of assay reagent to each well (final conc. 10 μM ATP, 2.5 μM substrate) • 6. Mix well on plate shaker • 7. Incubate 90 min (30° C.) • 8. Add 75 μl of stop solution to each well (final conc. 55 μM ATP) • 9. Spin plate: 3 min/1600 rpm/20° C. (alternatively leave to settle overnight) • 10. Read in Microbeta, Protocol SPA paralux 3.
Consider `O=C(c1ccccc1)c1ccc(=O)n(Cc2ccccc2)c1NCc1ccccc1` [Example 2, 5-Benzoyl-1-benzyl-6-(benzylamino)-2(1H)-pyridinone], for which the IC50 turned out to be 325 nM.

The compound `COc1ccc(-n2c(N)c(C(=O)c3ccccc3)ccc2=O)cc1` [Example 4, 6-Amino-5-benzoyl-1-(4-methoxyphenyl)-2(1H)-pyridinone] showed an IC50 of 299 nM.

Compound `O=C(c1ccccc1)c1ccc(=O)[nH]c1NC1CCCCC1` [Example 5, 5-Benzoyl-6-(cyclohexylamino)-2(1H)-pyridinone] yielded an IC50 of 1290 nM.

As to `Nc1c(C(=O)c2ccccc2)ccc(=O)n1-c1ccccc1` [Example 6, 6-Amino-5-benzoyl-1-phenyl-2(1H)-pyridinone], the IC50 came out at 202 nM.

`Cc1ccc(-n2c(N)c(C(=O)c3ccccc3)ccc2=O)cc1` [Example 9, 6-amino-5-benzoyl-1-(4-methylphenyl)-2(1H)-pyridinone]: half-maximal inhibition (IC50) required 209 nM.

For the compound `CC(C)C(Nc1c(C(=O)c2ccccc2)ccc(=O)n1C)C(C)C` [Example 14, 5-Benzoyl-6-[(1-isopropyl-2-methylpropyl)amino]-1-methyl-2(1H)-pyridinone], half-maximal inhibition (IC50) was put at 1880 nM.

With `O=C(c1ccccc1)c1ccc(=O)[nH]c1NCC1CCCCC1` [Example 15, 5-Benzoyl-6-[(cyclohexylmethyl)amino]-2(1H)-pyridinone], the IC50 was found to be 4050 nM.

Turning to `COc1ccc(-n2c(N)c(C(=O)c3ccc(F)cc3)ccc2=O)c(OC)c1` [Example 20, 6-Amino-1-(2,4-dimethoxyphenyl)-5-(4-fluorobenzoyl)-2(1H)-pyridinone], the IC50 was found to be 127 nM.

What is called IC50 is the concentration that gives 50% inhibition. Low values mean inhibition by little substance, high ones a need for much substance.
